From US20150284362A1, “CARBAZOLE-CONTAINING AMIDES, CARBAMATES, AND UREAS AS CRYPTOCHROME MODULATORS” (ReSet Therapeutics, Inc., priority 2014, published 2015) come the findings set out here.

Data set [1] relates to core clock gene mRNAs in liver. Kind of data set: 24 hour gene expression study, liver mRNA by RT-qPCR, Balb/c mice. Type of data set: in vivo, mouse. To be noted: 50 mg/kg PO BID, 7 doses. How it is done: (§1) E.Z.N.A.® HP Total RNA Isolation Kits (R6812-01 and the protocol described in the Manual, Revised 2010) were utilized to prepare and isolate RNA from the liver samples. To prepare the RNA samples, 10-30 mg of sample was removed from RNA-Later and placed in a 1.5 ml microfuge tube. GTC lysis buffer (700 μl) was added to the tissue, which was homogenized with a rotor-stator homogenizer (e.g. Tissue-Tearor, Model #985370 BioSpec Products with 4.5 mm probe, Cat. #985370-04), and then centrifuged at full speed (≧13,000×g) for 5 minutes. The cleared supernatant was transferred by pipetting to a DNA Clearance Column Pre-inserted in a 2 mL Collection Tube. The assembled column was centrifuged at 13,000×g for 1 minute, and the flow-through was saved. An equal volume (700 μl) of 70% ethanol was added to the lysate and mixed. The sample was then applied to a HiBind RNA spin column placed into a 2 ml collection tube, which was centrifuged at 10,000×g for 60 seconds at room temperature. RNA Wash Buffer I (250 μl) was added by pipetting directly onto a new HiBind RNA column inserted in a 2 ml collection tube. The assembled column was centrifuged at 10,000×g for 60 seconds. The RNA column was placed into a new 2 ml collection tube. DNase I stock solution is pipetted (75 μl) directly onto the surface of the HiBind RNA resin in each column (Using DNAse Digestion with RNase Free DNase Set (E1091): for each HiBind RNA column, the DNase I stock solution was prepared as followed: E.Z.N.A.® DNase I Digestion Buffer 73.5 μl, RNase Free DNase I (20 Kunitz/μl) 1.5 μl=Total Volume 75 μl.). The column with bound RNA was incubated at room temperature (25-30° C.) for 15 minutes. RNA Wash Buffer I (500 μl) was added to the column and placed on a bench top for 2 minutes. After centrifuging at 10,000×g for 60 seconds, discarding the flow-through, 500 μl of RNA Wash Buffer II was added and centrifuged at 10,000×g for 60 seconds. Another 500 μl of RNA Wash Buffer II was added and the column assembly was centrifuged at 10,000×g for 60 seconds. The column was centrifuged for 2 minutes at maximum speed to completely dry the HiBind matrix. […]
RediPlate 96 RiboGreen RNA Quantification Kit (Invitrogen) RediPlate standard curve was prepared by transferring 20 μl reconstituted RNA standard to a RediPlate well reconstituted in 180 μl RediPlate TE buffer. […] After transferring 5 μl to RediPlate well reconstituted in 195 μl TE buffer and incubating 10 min. at RT, Fluorescence Intensity of wells with standards and samples were read in a Tecan M200 with Excitation set at 480 nm and Emission set at 520 nm with the gain set to ˜70%. […] A standard curve was generated in GraphPad Prism and sample readings (unknowns) are interpolated via linear regression analysis, and the RNA sample concentrations were calculated. […]
Background: Real-time PCR tracks product formation cycle by cycle.

A short description of data set [2]: Pharmacokinetic analysis in SD rats (plasma). Type of data set: in vivo. To be noted: male, po, rat, 50 mg/kg P.O., Table 4, read-out: Total Plasma AUC, AUC (0-last). How it is done: Male SD rats (weighing 250-300 g, Charles River Laboratories) were used for the experiment with n=4 rats for each experimental group. […] Blood was collected at the following time points after administration: 15, 30, 60, 90 minutes, 3, 6, 12 and 24 hours. A pre-dose sample was also collected. Animals were cannulated by technical staff at Charles River, prior to delivery at Reset. Whole blood (0.3 ml) was collected from a cannula in the right common jugular vein at each time-point. The whole blood was transferred to an EDTA tube, and then centrifuged at 5400 rpm for 5 minutes at 4° C. The resultant plasma was frozen using dry ice and then stored at −80° C. until ready for assay. 0.9% Sodium Chloride (0.3 ml) was administered for fluid replenishment after each blood draw. 0.1 ml of Sodium Heparin (500 IU/ml) was used as a lock solution after the 12 hr time-point. Samples were assayed as described above.

Data set [3] deals with core clock and gluconeogenic gene mRNAs in liver. Kind of data set: 24 hour gene expression study, liver mRNA by RT-qPCR, C57Bl/6J DIO mice. Type of data set: in vivo, mouse. To be noted: 50 mg/kg PO BID, 5 doses.
Excerpt: Male C57Bl/6J DIO mice were purchased at 17 weeks of age (The Jackson Laboratory, Sacramento, Calif.) and acclimated for a 2 week period before being used for the experiment. Overall group size was 15 per treatment, divided into 5 time-points to give a final group size of 3 mice.
In total, each mouse received 5 doses of compound over the course of the experiment. Mice were weighed and randomly assigned to each treatment based on weight the evening before the commencement of the study. Beginning on Day 3 at 3:00 PM, a group of animals from the vehicle and Compound 72-treated groups were euthanized using CO2 asphyxiation, 50 mg of liver, epididymal fat, and skeletal muscle, respectively, were excised and placed in tube containing 500 μl of RNALater. This procedure took place for the remainder of the time-point groups at their given harvest times. Plasma samples were also taken for each animal and frozen, to be used for later measurement of compound levels.
as §1, with “matrix. The column was placed in a clean 1.5 ml microcentrifuge tube and 40-70 μl of molecular biology grade water is added.” for “matrix.”
RediPlate 96 RiboGreen RNA Quantification Kit (Invitrogen) RediPlate standard curve was prepared by transferring 20 μl reconstituted RNA standard to a RediPlate well reconstituted in 180 μl RediPlate TE buffer. […]

The mark [4] stands for this setting: at ZT8 and 32 hours after ZT0 vs vehicle.

`O=C1NCCN1CC(O)Cn1c2ccc(F)cc2c2cc(F)ccc21` (stereo not shown) [Compound 72, 1-(3-(3,6-difluoro-9H-carbazol-9-yl)-2-hydroxypropyl)imidazolidin-2-one]: the “Bmal1 mRNA in liver” value in data set [1] (setting [4]) and in data set [3] (setting [4]) was “substantially increased” each time. Moreover, the “Per2 mRNA in liver” value in data set [1] (over 24 hours vs vehicle) and in data set [3] (over 24 hours vs vehicle) was “suppressed” each time. Besides, the “Cry1 mRNA in liver” value in data set [1] (vs vehicle) and in data set [3] (vs vehicle) was “suppressed during its peak of expression during the dark period” each time. In addition, the “Cry2 mRNA in liver (daytime peak)” value in data set [1] (vs vehicle) and in data set [3] (vs vehicle) was “strongly attenuated” in each case. The AUC(0-t) in data set [2] was found to be 57900 ng·h/mL. Further, the “circadian pattern of mRNAs for gluconeogenic genes Pck1 and G6Pc in liver” value in data set [3] (vs vehicle) is “substantially altered”.
